Entries after “also recorded” stand apart in the source; their conditions may differ.
Legend:
[1] = system: HT-29 colorectal adenocarcinoma cell line+HDFn+PBMC; test: BioMAP StroHT29 system; format: cell-based, human; settings: stromal IL-6, FIG. 14
Text: (§1) To recapitulate the complex signaling networks that manifest in the multi-component TME, the BioMAP Oncology systems co-culture human primary immune cells with primary tissue cells in the presence of a specific cancer cell line. These co-cultures are stimulated with submitogenic levels of T cell receptor (TCR) ligands to prime, but not maximally activate T cells and model immune cells recruited to the intra-tumoural microenvironment.
There are two BioMAP Oncology panels that model the interactions between the immune-stromal (fibroblasts) and immune-vascular (endothelial cells) environments in the context of colon cancer (HT-29 CRC cell line), or in the context of non-small lung cancer (NCI-H1299 NSCLC cell line). The interactions between tumour cells, stimulated immune cells (peripheral blood mononuclear cells (PBMC)), and the host stromal network (human neonatal dermal fibroblasts (HDFn)) is captured in the Stro Oncology systems. […]
Adherent cell types are cultured in 96-well plates until confluent, followed by the addition of PBMC. […] Soluble factors from supernatants are quantified using either HTRF® detection, bead-based multiplex immunoassay or capture ELISA. Effects of test agents on cell viability (cytotoxicity) are measured by sulforhodamine B (SRB) for adherent cells (48-hrs), and by alamarBlue® reduction for cells in suspension (42-hrs) at the time points indicated. […]

[2] = pulmonary metastatic liver cancer, Wu et al 2017; cited from earlier work
HT-29 = test: Sensitivity of HT-29 cells to MIV-818 alone (IC50); format: cell-based; settings: Homo sapiens; HT-29, MIV-818 alone
HepG2 = test: IC50 in representative HCC cell line HepG2; format: cell-based; settings: Homo sapiens
[3] = Stability in rodent blood / plasma; format: in vitro ADME
[4] = system: vascular or stromal models of HT-29 and peripheral blood mononuclear cells (PBMCs); test: BioMAP Oncology CRC panel, system not specified (tumour immune microenvironment model); format: cell-based, human; settings: 4 concentrations, 48-hrs, vs vehicle control
Text: as §1
There are two BioMAP Oncology panels that model the interactions between the immune-stromal (fibroblasts) and immune-vascular (endothelial cells) environments in the context of colon cancer (HT-29 CRC cell line), or in the context of non-small lung cancer (NCI-H1299 NSCLC cell line). The interactions between tumour cells, stimulated immune cells (peripheral blood mononuclear cells (PBMC)), and the host stromal network (human neonatal dermal fibroblasts (HDFn)) is captured in the Stro Oncology systems. In parallel, the Vasc systems capture the interactions between tumour cells, activated immune cells and the vascular tissue (human umbilical vein endothelial cells (HUVEC). The biomarkers selected for the Oncology panels inform on activities related to inflammation, immune-function, tissue remodeling and metastasis in the context of a host tumour-microenvironment. Collectively, the Oncology CRC panel and the Oncology NSCLC panel.
Human primary cells in BioMAP systems are used at early passage (passage 4 or earlier) to minimize adaptation to cell culture conditions and preserve physiological signaling responses. All primary cells are pooled from multiple donors (n=3-6), commercially purchased and handled according to the recommendations of the manufacturers. The HT-29 CRC cell line and the NCI-H1299 NSCLC cell line are purchased from American Type Culture Collection (ATCC). Abbreviations are used as follows: human umbilical vein endothelial cells (HUVEC), peripheral blood mononuclear cells (PBMC), human neonatal dermal fibroblasts (HDFn) and T cell receptor (TCR). Systems in both the Oncology CRC and NSCLC panels are stimulated by sub-mitogenic levels of super antigens (SAg) acting via the TCR to recapitulate the recruitment of immune cells to the tumour environment in situ. These stimulation conditions are optimized to activate or prime T cells, but not drive T cell proliferation.
Cell types used in each of the CRC systems are as follows: StroHT29 system [HT-29 colorectal adenocarcinoma cell line+HDFn+PBMC] and VascHT29 system [HT-29 colorectal adenocarcinoma cell line+HUVEC+PBMC].
Adherent cell types are cultured in 96-well plates until confluent, followed by the addition of PBMC. Test agents prepared in either DMSO (small molecules; final concentration ≤0.1%) or PBS (biologics) are added at the specified concentrations 1-hr before stimulation, and remain in culture for 48-hrs. Each plate contains drug controls (e.g., legacy control test agent colchicine), negative controls (e.g., non-stimulated condition) and vehicle controls (e.g., 0.1% DMSO). Direct ELISA is used to measure biomarker levels of cell-associated and cell membrane targets. Soluble factors from supernatants are quantified using either HTRF® detection, bead-based multiplex immunoassay or capture ELISA. Effects of test agents on cell viability (cytotoxicity) are measured by sulforhodamine B (SRB) for adherent cells (48-hrs), and by alamarBlue® reduction for cells in suspension (42-hrs) at the time points indicated. All test agents are tested in standardized formats at 4 concentrations, in triplicate. Colchicine stimulated wells, vehicle control treated wells, and wells without stimulation are included as controls on each plate (n=3-8). Data acceptance criteria are based on plate performance (% CV of controls), and the performance of positive controls across assays with a comparison to historical controls. […]

SK-OV-3 tumour cells = test: PBMC-mediated tumour cell killing; format: cell-based, human; settings: anti-CD3 stimulated PBMC co-culture, 68 hrs, 5000 nM MIV-818
Procedure: Whole blood from three healthy donors was used. PBMC were isolated over a density gradient and counted before adding to NucLight Red labelled tumour targets at a defined E:T ratio in the presence of anti-CD3 stimulation. Tumour cell—PBMC co-cultures were incubated with test compounds at eight concentrations. Appropriate controls were included: PBMC alone, tumour cells alone, tumour cells/PBMC in the presence of a reference compound at a single concentration. All test conditions were also plated onto tumour cells in the absence of stimulated PBMC in order to detect direct compound-associated tumour cytotoxicity. Tumour killing was evaluated by counting viable NucLight positive tumour cells over time. In addition, a Caspase 3/7 dye was used to identify apoptotic tumour cells. Cultures were analysed using an IncuCyte ZOOM machine which allows real-time quantitative live cell fluorescent imaging. Co-cultures were imaged over 68 hrs. Each culture condition was established in triplicate. Cell culture supernatants were stored for optional cytokine analysis.
PBMC were isolated from 3 healthy donors and added to co-cultures with anti-CD3 stimulation and NucLight Red labelled SK-OV-3 tumour cells. […] SK-OV-3 apoptotic cell death was monitored in the co-culture system by imaging for 68 hours using the IncuCyte Zoom software.

Human PBMC = test: IL-2 expression in SEB-stimulated PBMC cultures; format: cell-based; settings: five days, Luminex
[5] = Stability in human plasma; format: in vitro ADME

| Molecule | sIL-6 in the stromal HT-29 system [1] | adverse event reported [2] | IC50 (HT-29) [nM] | IC50 (HepG2) [nM] | metabolism in rodent blood ([3]; rodent blood) | stability in rodent plasma ([3]; rodent plasma) | Collagen III [4] | IP-10 [4] | VCAM-1 [4] | sIFNγ [4] | sIL-6 [4] | sIL-17A [4] | uPAR [4] | PBMC-mediated tumour cell killing (apoptotic SK-OV-3 counts) (SK-OV-3 tumour cells) | IL-2 expression (Human PBMC) | stability in human plasma [5] |
| --- | --- | --- | --- | --- | --- | --- | --- | --- | --- | --- | --- | --- | --- | --- | --- | --- |
| pembrolizumab: humanized monoclonal IgG4 antibody directed against human cell surface receptor PD-1 | increase; also recorded: modest enhancement | liver failure |  |  |  |  |  |  |  |  |  |  |  |  |  |  |
| CCC[C@H](C)OC(=O)[C@H](C)NP(=O)(OC[C@H]1OC[C@@H](n2ccc(N)nc2=O)O1)Oc1ccc(Br)cc1 (stereo in doubt) [MIV-818] | inhibits |  | ~20 | ~20 | very quickly metabolized | extremely unstable | decreased | decreased | decreased | increased | decreased | increased | Decreased | enhance | induced | stable |
